According to patent US20100209345A1, “Fluorinated Ligands for Targeting Peripheral Benzodiazepine Receptors” (Australian Nuclear Science & Technology Organisation, priority 2006, published 2010):
Each block holds one compound with its values, some of them ahead of it.

Assays:
[1] = Biodistribution of 18F-labelled tracers in rats; type: in vivo
Procedure: [^18F]Fluoride, in the form of H^18F, was produced by the ^18O(p,n)^18F nuclear reaction by bombardment of ^18O-enriched water target. The aqueous [^18F]fluoride solution was added to a 2.5-mL wheaton vial containing dry acetonitrile (1 mL), Kryptofix 2.2.2 (5 mg, 13.3 μmol) and potassium carbonate (2 mg, 14.5 μmol). The solvent was evaporated under a stream of nitrogen at 90° C. with a reducing vacuum. This azeotropic drying was repeated twice by further addition of acetonitrile (2×1 mL). The tosylate precursor 2-(2-(4-(2-tosylethoxy)phenyl)-6-chloroimidazo[1,2-a]pyridin-3-yl)-N,N-diethylacetamide (2 mg, 3.6 μmol) was dissolved in acetonitrile (1 ml) and added to the dried K222.K2CO3.KF complex. Stirring and heating at 90° C. continued for 10 to 15 mins before the reaction mixture was diluted with mobile phase and purified by reverse phase HPLC on an Alltech Alltima, C18, 10μ, 250×22 mm column eluting at 10 mLs/min with 45% acetonitrile, 55% water with 0.1% TFA.
(§1) The biodistribution of PBR132* was undertaken in SD rats and analysis up to 4 h p.i. in the brain and peripheral tissues was performed. The specificity and selectivity of the tracer were assessed by pre-treatment with PBR and Central benzodiazepine receptor (CBR) specific ligands (1 mg/kg) 5 min prior to injection of PBR132*.
(§2) The biodistribution of PBR 147* was performed in SD rats and brain and peripheral tissues were analysised at 15, 30 min, 1, and 4 h p.i. The specificity and selectivity of the tracer was assessed by pre-treatment of the animals with the PBR ligands PK11195 and Ro 5-4864 and with Flumazenil for CBR at 1 mg/kg 5 min prior to injection of PBR 147*
(§3) The biodistribution of PBR102* and PBR111* were performed in SD rats and brain and peripheral tissues analysed at 15, 30 min, 1, and 4 h p.i. The specificity and selectivity of the tracers were assessed by pre-treatment with the PBR ligands PK11195 and Ro 5-4864 and with Flumazenil for CBR at 1 mg/kg 5 min prior to injection of the corresponding tracers.
(§4) The specificity and selectivity of the tracers were assessed by pre-treatment with the PBR ligands PK11195 and Ro 5-4864 and with Flumazenil for CBR at 1 mg/kg 5 min prior to injection of the corresponding tracers.

[2] = molecular target: T1, peripheral benzodiazepine receptors (Rattus norvegicus, UniProt P16257); assay: In vivo blocking / competition of tracer uptake by pre-treatment with PBR and CBR ligands; conditions: rats
T1 construct: high uptake in the tissues which have known PBR sites; from tissue; host or cells: organs of living SD rats (brain and peripheral tissues), in vivo
Procedure: The criteria for significance were **p<0.01 (highly significant) and *p<0.05 (significant). No stars implies not statistical difference from normals or controls.
as §1, §2, §3, §4

[3] = SD rats, 15 min, decay correction not stated
[4] = SD rats, 4 hours, decay correction not stated
[5] = rats, 15 min, corrected for decay of 18F
[6] = rats, 30 min, corrected for decay of 18F
[7] = rats, 60 min, corrected for decay of 18F
[8] = rats, 4 hours, corrected for decay of 18F

Biodistribution: Blood [1, 3]: 0.4 % ID/g
Biodistribution: Bone [1, 3]: 1.0 % ID/g
Biodistribution: Kidney [1, 3]: 5.5 % ID/g
Biodistribution: Olfactory bulbs [1, 3]: 0.41 % ID/g
Biodistribution: Adrenals ([1]; SD rats, 30 min, decay correction not stated): 7.9 % ID/g
Biodistribution: Adrenals [1, 4]: 12.2 % ID/g
Biodistribution: Blood [1, 4]: 0.1 % ID/g
Biodistribution: Bone [1, 4]: 5.0 % ID/g
Biodistribution: Kidney [1, 4]: 3.2 % ID/g
Biodistribution: Olfactory bulbs [1, 4]: 0.31 % ID/g
Biodistribution: Adrenals [1, 5]: 8.05 ± 0.66 % ID/g
Biodistribution: Bladder [1, 5]: 0.63 ± 0.14 % ID/g
Biodistribution: Blood [1, 5]: 0.38 ± 0.08 % ID/g
Biodistribution: Bone [1, 5]: 1.06 ± 0.17 % ID/g
Biodistribution: Brain [1, 5]: 0.27 ± 0.03 % ID/g
Biodistribution: Heart [1, 5]: 8.99 ± 0.69 % ID/g
Biodistribution: Kidney [1, 5]: 5.53 ± 1.20 % ID/g
Biodistribution: Liver [1, 5]: 1.08 ± 0.05 % ID/g
Biodistribution: Lungs [1, 5]: 20.42 ± 4.32 % ID/g
Biodistribution: Muscle [1, 5]: 1.10 ± 0.15 % ID/g
Biodistribution: Olfactory bulbs [1, 5]: 0.41 ± 0.10 % ID/g
Biodistribution: Pancreas [1, 5]: 2.20 ± 0.68 % ID/g
Biodistribution: Skin [1, 5]: 0.53 ± 0.11 % ID/g
Biodistribution: Spleen [1, 5]: 5.49 ± 0.90 % ID/g
Biodistribution: Stomach [1, 5]: 0.69 ± 0.12 % ID/g
Biodistribution: Testes [1, 5]: 0.269 ± 0.022 % ID/g
Biodistribution: Thymus [1, 5]: 0.80 ± 0.07 % ID/g
Biodistribution: Thyroid [1, 5]: 7.71 ± 2.92 % ID/g
Biodistribution: Adrenals [1, 6]: 7.94 ± 1.52 % ID/g
Biodistribution: Bladder [1, 6]: 0.71 ± 0.22 % ID/g
Biodistribution: Blood [1, 6]: 0.26 ± 0.03 % ID/g
Biodistribution: Bone [1, 6]: 1.46 ± 0.27 % ID/g
Biodistribution: Brain [1, 6]: 0.15 ± 0.02 % ID/g
Biodistribution: GIT [1, 6]: 1.25 ± 0.09 % ID/g
Biodistribution: Heart [1, 6]: 9.05 ± 0.51 % ID/g
Biodistribution: Kidney [1, 6]: 4.91 ± 0.21 % ID/g
Biodistribution: Liver [1, 6]: 0.98 ± 0.21 % ID/g
Biodistribution: Lungs [1, 6]: 12.36 ± 1.28 % ID/g
Biodistribution: Muscle [1, 6]: 0.82 ± 0.13 % ID/g
Biodistribution: Olfactory bulbs [1, 6]: 0.45 ± 0.07 % ID/g
Biodistribution: Pancreas [1, 6]: 1.59 ± 0.10 % ID/g
Biodistribution: Skin [1, 6]: 0.55 ± 0.05 % ID/g
Biodistribution: Spleen [1, 6]: 5.53 ± 0.36 % ID/g
Biodistribution: Stomach [1, 6]: 1.03 ± 0.16 % ID/g
Biodistribution: Testes [1, 6]: 0.285 ± 0.024 % ID/g
Biodistribution: Thymus [1, 6]: 0.84 ± 0.11 % ID/g
Biodistribution: Thyroid [1, 6]: 7.69 ± 2.21 % ID/g
Biodistribution: Adrenals [1, 7]: 11.02 ± 1.88 % ID/g
Biodistribution: Bladder [1, 7]: 0.89 ± 0.25 % ID/g
Biodistribution: Blood [1, 7]: 0.18 ± 0.02 % ID/g
Biodistribution: Bone [1, 7]: 2.07 ± 0.27 % ID/g
Biodistribution: Brain [1, 7]: 0.12 ± 0.01 % ID/g
Biodistribution: GIT [1, 7]: 1.51 ± 0.21 % ID/g
Biodistribution: Heart [1, 7]: 8.57 ± 1.01 % ID/g
Biodistribution: Kidney [1, 7]: 4.70 ± 0.24 % ID/g
Biodistribution: Liver [1, 7]: 0.69 ± 0.26 % ID/g
Biodistribution: Lungs [1, 7]: 7.12 ± 0.95 % ID/g
Biodistribution: Muscle [1, 7]: 0.67 ± 0.04 % ID/g
Biodistribution: Olfactory bulbs [1, 7]: 0.25 ± 0.06 % ID/g
Biodistribution: Pancreas [1, 7]: 1.41 ± 0.22 % ID/g
Biodistribution: Skin [1, 7]: 0.67 ± 0.06 % ID/g
Biodistribution: Spleen [1, 7]: 5.14 ± 0.38 % ID/g
Biodistribution: Stomach [1, 7]: 1.27 ± 0.45 % ID/g
Biodistribution: Testes [1, 7]: 0.319 ± 0.028 % ID/g
Biodistribution: Thymus [1, 7]: 0.96 ± 0.17 % ID/g
Biodistribution: Thyroid [1, 7]: 13.37 ± 0.46 % ID/g
Biodistribution: Adrenals [1, 8]: 12.21 ± 1.56 % ID/g
Biodistribution: Bladder [1, 8]: 1.26 ± 0.16 % ID/g
Biodistribution: Blood [1, 8]: 0.10 ± 0.01 % ID/g
Biodistribution: Bone [1, 8]: 4.12 ± 0.23 % ID/g
Biodistribution: Brain [1, 8]: 0.08 ± 0.01 % ID/g
Biodistribution: GIT [1, 8]: 1.54 ± 0.11 % ID/g
Biodistribution: Heart [1, 8]: 5.76 ± 0.92 % ID/g
Biodistribution: Kidney [1, 8]: 3.23 ± 0.26 % ID/g
Biodistribution: Liver [1, 8]: 0.38 ± 0.09 % ID/g
Biodistribution: Lungs [1, 8]: 3.25 ± 0.21 % ID/g
Biodistribution: Muscle [1, 8]: 0.31 ± 0.06 % ID/g
Biodistribution: Olfactory bulbs [1, 8]: 0.31 ± 0.08 % ID/g
Biodistribution: Pancreas [1, 8]: 0.77 ± 0.16 % ID/g
Biodistribution: Skin [1, 8]: 0.71 ± 0.07 % ID/g
Biodistribution: Spleen [1, 8]: 3.61 ± 0.19 % ID/g
Biodistribution: Stomach [1, 8]: 0.34 ± 0.04 % ID/g
Biodistribution: Testes [1, 8]: 0.426 ± 0.043 % ID/g
Biodistribution: Thymus [1, 8]: 1.35 ± 0.15 % ID/g
Biodistribution: Thyroid [1, 8]: 10.68 ± 1.44 % ID/g
SMILES: CCN(CC)C(=O)Cc1c(-c2ccc(OCCCF)cc2)nn2c(C)cc(C)nc12 [PBR146*]

SMILES: CN(C(=O)Cc1c(-c2ccc(OCCC[18F])cc2)nc2c(Cl)cc(Cl)cn12)c1ccccc1 [PBR147*, 2-(2-(4-(3-fluoropropoxy)phenyl)-6,8-dichloroimidazo[1,2-a]pyridin-3-yl)-N-methyl-N-phenylacetamide]
Tracer uptake after pre-treatment with PK 11195 ([2]; PK 11195 1 mg/kg 5 min prior to tracer, PBR-expressing tissues (brain/peripheral organs, adrenals apart)): blocking effect
Tracer uptake after pre-treatment with Ro 5-4864 ([2]; Ro 5-4864 1 mg/kg 5 min prior to tracer, PBR-expressing tissues (brain/peripheral organs, adrenals apart)): blocking effect
Tracer uptake after pre-treatment with flumazenil (central benzodiazepine ligand) ([2]; flumazenil 1 mg/kg 5 min prior to tracer, brain or peripheral organs): does not reduce
Tracer uptake after pre-treatment with the non-radioactive analogue ([2]; non-radioactive analogue 1 mg/kg, PBR-expressing tissues): blocking effect
